# Patent publication US4933361A, “Derivatives of bicyclic aminoacids agents containing these compounds and their use” (Hoechst Aktiengesellschaft, priority 1981, dated 1990)
# Counter-ions that a name gives are not always drawn.
# System: pressor reaction induced by 310 ng of angiotensin I
# Assay: Intraduodenal administration to the anesthetized rat, 50% inhibition of the pressor reaction induced by angiotensin I
# Assay type: in vivo
# Settings: 0.5 h, Table I, H atoms on C-3a and C-(6+n)a cis, 310 ng angiotensin I, 30 min after administration
# Description: After administration in the dose . . . =ED50 :
row,SMILES,ED50 [mg/kg]
1,"CCOC(=O)[C@H](CCc1ccccc1)N[C@@H](C)C(=O)N1[C@@H]2CCCC[C@@H]2C[C@H]1C(=O)O [Example 17, N-(1S-Carboethoxy-3-phenylpropyl)-S-alanyl-2S,3aR,7aR-octahydroindole-2-carboxylic acid hydrochloride]",0.05
2,"CCOC(=O)[C@H](CCc1ccccc1)N[C@@H](C)C(=O)N1[C@@H]2CCC[C@@H]2C[C@H]1C(=O)O [Example 18, N-(1S-Carboethoxy-3-phenylpropyl)-S-alanyl-2S,3aR,6aR-octahydrocyclopenta[b]pyrrole-2-carboxylic acid hydrochloride]",0.04
3,"CCOC(=O)[C@H](CCc1ccccc1)N[C@@H](C)C(=O)N1[C@@H]2CCCCC[C@@H]2C[C@H]1C(=O)O [Example 19, N-(1S-Carboethoxy-3-phenylpropyl)-S-alanyl-2S,3aR,8aR-decahydrocyclohepta[b]pyrrole-2-carboxylic acid hydrochloride]",0.23
4,"C[C@H](N[C@@H](CCc1ccccc1)C(=O)O)C(=O)N1[C@@H]2CCCC[C@@H]2C[C@H]1C(=O)O [Example 20, N-(1S-Carboxy-3-phenylpropyl)-S-alanyl-2S,3aR,7aR-octahydroindole-2-carboxylic acid]",0.6
5,"C[C@H](N[C@@H](CCc1ccccc1)C(=O)O)C(=O)N1[C@@H]2CCC[C@@H]2C[C@H]1C(=O)O [Example 21, N-(1S-Carboxy-3-phenylpropyl)-S-alanyl-2S,3aR,6aR-octahydrocyclopenta[b]pyrrole-2-carboxylic acid]",0.7
6,"C[C@H](N[C@@H](CCc1ccccc1)C(=O)O)C(=O)N1[C@@H]2CCCCC[C@@H]2C[C@H]1C(=O)O [Example 22, N-(1S-Carboxy-3-phenylpropyl)-S-alanyl-2S,3aR,8aR-decahydrocyclohepta[b]pyrrole-2-carboxylic acid]",0.84

# Same assay, conditions: 0.5 h, Table II, H atoms on C-3a and C-(6+n)a trans, X = phenyl, R1 = methyl, 310 ng angiotensin I, 30 min after administration
row,SMILES,ED50 [mg/kg]
1,"CCOC(=O)[C@H](CCc1ccccc1)N[C@@H](C)C(=O)N1[C@H](C(=O)O)C[C@H]2CCCC[C@@H]21 [Example 42, N-(1S-Carboethoxy-3-phenylpropyl)-S-alanyl-2S,3aR,7aS-octahydroindole-2-carboxylic acid]",0.055
2,"CCOC(=O)[C@H](CCc1ccccc1)N[C@@H](C)C(=O)N1[C@@H]2CCCC[C@H]2C[C@H]1C(=O)O [Example 43, N-(1S-Carboethoxy-3-phenylpropyl)-S-alanyl-2S,3aS,7aR-octahydroindole-2-carboxylic acid]",0.065
3,"CCOC(=O)[C@H](CCc1ccccc1)N[C@@H](C)C(=O)N1[C@H](C(=O)O)C[C@H]2CCC[C@@H]21 [Example 44, N-(1S-Carboethoxy-3-phenylpropyl)-S-alanyl-2S,3aR,6aS-octahydrocyclopenta[b]pyrrole-2-carboxylic acid]",0.04
4,"CCOC(=O)[C@H](CCc1ccccc1)N[C@@H](C)C(=O)N1[C@H](C(=O)O)C[C@H]2CCCCC[C@@H]21 [Example 46, N-(1S-Carboethoxy-3-phenylpropyl)-S-alanyl-2S,3aR,8aS-decahydrocyclohepta[b]pyrrole-2-carboxylic acid]",0.11
5,"CCOC(=O)[C@H](CC(=O)c1ccccc1)N[C@@H](C)C(=O)N1[C@H](C(=O)O)C[C@H]2CCCC[C@@H]21 [Example 67, N-(1S-Carboethoxy-3-keto-3-phenylpropyl)-S-alanyl-2S,3aR,7aS-octahydroindole-2-carboxylic acid]",0.18
6,"C[C@H](N[C@@H](CCc1ccccc1)C(=O)O)C(=O)N1[C@H](C(=O)O)C[C@H]2CCCC[C@@H]21 [Example 75, N-(1S-Carboxy-3-phenylpropyl)-S-alanyl-2S,3aR,7aS-octahydroindole-2-carboxylic acid]",0.8
7,"C[C@H](N[C@@H](CCc1ccccc1)C(=O)O)C(=O)N1[C@@H]2CCCC[C@H]2C[C@H]1C(=O)O [Example 76, N-(1S-Carboxy-3-phenylpropyl)-S-alanyl-2S,3aS,7aR-octahydroindole-2-carboxylic acid]",0.85
8,"C[C@H](N[C@@H](CCc1ccccc1)C(=O)O)C(=O)N1[C@H](C(=O)O)C[C@H]2CCC[C@@H]21 [Example 77, N-(1S-Carboxy-3-phenylpropyl)-S-alanyl-2S,3aR,6aS-octahydrocyclopenta[b]pyrrole-2-carboxylic acid]",0.7
9,"C[C@H](N[C@@H](CCc1ccccc1)C(=O)O)C(=O)N1[C@H](C(=O)O)C[C@H]2CCCCC[C@@H]21 [Example 79, N-(1S-Carboxy-3-phenylpropyl)-S-alanyl-2S,3aR,6aS-decahydrocyclohepta[b]pyrrole-2-carboxylic acid]",1.08

# Same assay, conditions: Table I, H atoms on C-3a and C-(6+n)a cis, 310 ng angiotensin I, 30 min after administration
row,SMILES,ED50 (50% inhibition of the pressor reaction induced by angiotensin I) [mg/kg]
1,"CCOC(=O)[C@H](CC(=O)c1ccccc1)N[C@@H](C)C(=O)N1C(C(=O)O)CC2CCCCC21.O=C(O)C(F)(F)F (stereo partly drawn) [Example 29, N-(1S-Carboethoxy-3-phenyl-3-oxopropyl)-S-alanyl-2β,3aβ,7aβ-octahydroindole-2-carboxylic acid trifluoroacetate]",0.39
